Values joined by “and” are separate entries in the source; they are usually repeats but may differ in a detail not shown here. Equal entries are not always repeated.
Key:
Format in all cases: cell-based
[1] = target: panel of 320 non-olfactory GPCRs (Homo sapiens, UniProt Q9HC97)
[2] = target: panel of 320 non-olfactory GPCRs (Homo sapiens, UniProt Q8NDV2)
[3] = target: panel of 320 non-olfactory GPCRs (Homo sapiens, UniProt P08912)
[4] = target: panel of 320 non-olfactory GPCRs (Homo sapiens, UniProt Q9Y5Y4)
Chain of panel of 320 non-olfactory GPCRs (Homo sapiens, UniProt Q9Y5Y4) (Q9Y5Y4 whole entry): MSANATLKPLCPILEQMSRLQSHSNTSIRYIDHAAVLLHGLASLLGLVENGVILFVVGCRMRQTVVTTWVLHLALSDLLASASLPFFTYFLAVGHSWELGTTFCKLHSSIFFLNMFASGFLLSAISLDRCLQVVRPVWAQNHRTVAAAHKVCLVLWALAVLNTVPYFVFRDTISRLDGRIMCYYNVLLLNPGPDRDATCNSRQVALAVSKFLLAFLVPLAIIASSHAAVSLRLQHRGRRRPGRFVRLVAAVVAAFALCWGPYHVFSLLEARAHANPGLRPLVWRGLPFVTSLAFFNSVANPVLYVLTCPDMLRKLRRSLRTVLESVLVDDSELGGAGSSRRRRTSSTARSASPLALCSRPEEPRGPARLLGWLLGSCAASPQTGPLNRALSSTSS

[5] = target: panel of 320 non-olfactory GPCRs (Homo sapiens, UniProt Q13258)
[6] = target: panel of 320 non-olfactory GPCRs (Homo sapiens, UniProt P21453)
[7] = target: panel of 320 non-olfactory GPCRs (Homo sapiens, UniProt O95136)
Chain of panel of 320 non-olfactory GPCRs (Homo sapiens, UniProt O95136) (O95136 whole entry): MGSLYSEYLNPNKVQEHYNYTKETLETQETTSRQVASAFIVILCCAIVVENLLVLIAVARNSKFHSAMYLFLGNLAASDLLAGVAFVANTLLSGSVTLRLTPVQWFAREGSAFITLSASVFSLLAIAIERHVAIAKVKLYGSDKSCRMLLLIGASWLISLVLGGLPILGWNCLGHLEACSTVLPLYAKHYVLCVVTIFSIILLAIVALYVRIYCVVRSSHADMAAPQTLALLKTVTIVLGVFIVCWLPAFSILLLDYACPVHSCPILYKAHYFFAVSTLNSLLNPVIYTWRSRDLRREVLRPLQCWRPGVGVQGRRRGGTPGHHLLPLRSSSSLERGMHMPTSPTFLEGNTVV

[8] = target: panel of 320 non-olfactory GPCRs (Homo sapiens, UniProt Q8TDS4)
[9] = target: panel of 320 non-olfactory GPCRs (Homo sapiens, UniProt P37288)
[10] = target: panel of 320 non-olfactory GPCRs (Homo sapiens, UniProt P28223)
[11] = target: panel of 320 non-olfactory GPCRs (Homo sapiens, UniProt Q99677)
[12] = target: panel of 320 non-olfactory GPCRs (Homo sapiens, UniProt P25103)
[13] = target: panel of 320 non-olfactory GPCRs (Homo sapiens, UniProt P46092)
[14] = target: panel of 320 non-olfactory GPCRs (Homo sapiens, UniProt P35368)
[15] = target: panel of 320 non-olfactory GPCRs (Homo sapiens, UniProt P51685)
Chain of panel of 320 non-olfactory GPCRs (Homo sapiens, UniProt P51685) (P51685 whole entry): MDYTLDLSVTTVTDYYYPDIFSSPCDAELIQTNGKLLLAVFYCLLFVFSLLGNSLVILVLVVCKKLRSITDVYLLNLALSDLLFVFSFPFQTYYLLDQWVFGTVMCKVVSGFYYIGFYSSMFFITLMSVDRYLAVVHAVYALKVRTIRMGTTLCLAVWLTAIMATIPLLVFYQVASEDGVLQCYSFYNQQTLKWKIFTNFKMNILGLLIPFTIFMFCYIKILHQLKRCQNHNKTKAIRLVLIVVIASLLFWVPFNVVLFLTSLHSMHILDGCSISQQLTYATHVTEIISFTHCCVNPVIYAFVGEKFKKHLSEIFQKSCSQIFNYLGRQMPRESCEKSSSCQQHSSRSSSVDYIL

[16] = target: panel of 320 non-olfactory GPCRs (Homo sapiens, UniProt O43193)
Chain of panel of 320 non-olfactory GPCRs (Homo sapiens, UniProt O43193) (O43193 whole entry): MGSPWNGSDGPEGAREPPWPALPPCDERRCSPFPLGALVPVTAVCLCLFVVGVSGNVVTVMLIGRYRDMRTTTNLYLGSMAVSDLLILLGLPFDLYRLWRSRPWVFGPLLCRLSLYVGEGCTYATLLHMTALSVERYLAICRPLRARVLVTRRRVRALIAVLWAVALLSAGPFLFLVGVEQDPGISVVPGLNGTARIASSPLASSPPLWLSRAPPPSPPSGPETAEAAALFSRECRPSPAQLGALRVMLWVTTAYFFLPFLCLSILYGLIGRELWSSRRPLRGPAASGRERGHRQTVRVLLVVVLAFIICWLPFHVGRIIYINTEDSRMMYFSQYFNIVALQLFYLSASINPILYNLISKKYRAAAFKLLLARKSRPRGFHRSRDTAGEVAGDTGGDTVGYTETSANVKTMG

[17] = target: panel of 320 non-olfactory GPCRs (Homo sapiens, UniProt P23945)
[18] = target: panel of 320 non-olfactory GPCRs (Homo sapiens, UniProt Q96RI8)
Chain of panel of 320 non-olfactory GPCRs (Homo sapiens, UniProt Q96RI8) (Q96RI8 whole entry): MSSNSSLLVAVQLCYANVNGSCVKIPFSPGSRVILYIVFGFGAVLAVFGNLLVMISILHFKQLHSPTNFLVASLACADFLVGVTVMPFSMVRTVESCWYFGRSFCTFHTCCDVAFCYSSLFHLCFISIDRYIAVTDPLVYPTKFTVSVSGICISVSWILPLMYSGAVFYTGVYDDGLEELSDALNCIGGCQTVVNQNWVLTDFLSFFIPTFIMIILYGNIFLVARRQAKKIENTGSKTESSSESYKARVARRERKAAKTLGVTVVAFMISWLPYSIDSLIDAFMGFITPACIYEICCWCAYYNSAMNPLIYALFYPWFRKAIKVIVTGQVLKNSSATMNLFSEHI

[19] = target: panel of 320 non-olfactory GPCRs (Homo sapiens, UniProt Q8NFJ6)
Chain of panel of 320 non-olfactory GPCRs (Homo sapiens, UniProt Q8NFJ6) (Q8NFJ6 whole entry): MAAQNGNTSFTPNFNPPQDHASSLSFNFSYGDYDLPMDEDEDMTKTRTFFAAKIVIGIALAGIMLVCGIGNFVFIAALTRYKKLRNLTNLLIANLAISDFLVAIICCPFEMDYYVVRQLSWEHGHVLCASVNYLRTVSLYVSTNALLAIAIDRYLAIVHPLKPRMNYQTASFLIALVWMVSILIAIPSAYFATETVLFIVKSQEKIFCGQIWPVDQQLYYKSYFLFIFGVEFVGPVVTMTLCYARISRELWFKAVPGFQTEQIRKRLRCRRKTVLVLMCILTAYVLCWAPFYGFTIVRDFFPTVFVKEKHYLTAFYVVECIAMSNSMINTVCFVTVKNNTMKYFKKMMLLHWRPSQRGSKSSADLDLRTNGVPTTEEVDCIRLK

[20] = target: panel of 320 non-olfactory GPCRs (Homo sapiens, UniProt P43220)
[21] = target: panel of 320 non-olfactory GPCRs (Homo sapiens, UniProt P35410)
[22] = target: panel of 320 non-olfactory GPCRs (Homo sapiens, UniProt Q96RI0)
[23] = target: panel of 320 non-olfactory GPCRs (Homo sapiens, UniProt P49190)
[24] = target: panel of 320 non-olfactory GPCRs (Homo sapiens, UniProt P30550)
Chain of panel of 320 non-olfactory GPCRs (Homo sapiens, UniProt P30550) (P30550 whole entry): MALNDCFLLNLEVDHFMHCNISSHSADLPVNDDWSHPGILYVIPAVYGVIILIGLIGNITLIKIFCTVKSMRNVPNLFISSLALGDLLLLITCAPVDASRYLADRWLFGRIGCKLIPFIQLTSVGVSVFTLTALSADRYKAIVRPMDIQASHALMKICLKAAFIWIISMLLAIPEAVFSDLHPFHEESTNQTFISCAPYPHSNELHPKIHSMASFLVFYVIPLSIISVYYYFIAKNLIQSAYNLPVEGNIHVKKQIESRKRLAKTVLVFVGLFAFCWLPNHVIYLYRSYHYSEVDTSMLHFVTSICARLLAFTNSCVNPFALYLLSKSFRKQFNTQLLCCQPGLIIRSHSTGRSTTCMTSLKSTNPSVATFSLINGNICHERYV

[25] = target: panel of 320 non-olfactory GPCRs (Homo sapiens, UniProt P32745)
[26] = target: panel of 320 non-olfactory GPCRs (Homo sapiens, UniProt P35408)
Chain of panel of 320 non-olfactory GPCRs (Homo sapiens, UniProt P35408) (P35408 whole entry): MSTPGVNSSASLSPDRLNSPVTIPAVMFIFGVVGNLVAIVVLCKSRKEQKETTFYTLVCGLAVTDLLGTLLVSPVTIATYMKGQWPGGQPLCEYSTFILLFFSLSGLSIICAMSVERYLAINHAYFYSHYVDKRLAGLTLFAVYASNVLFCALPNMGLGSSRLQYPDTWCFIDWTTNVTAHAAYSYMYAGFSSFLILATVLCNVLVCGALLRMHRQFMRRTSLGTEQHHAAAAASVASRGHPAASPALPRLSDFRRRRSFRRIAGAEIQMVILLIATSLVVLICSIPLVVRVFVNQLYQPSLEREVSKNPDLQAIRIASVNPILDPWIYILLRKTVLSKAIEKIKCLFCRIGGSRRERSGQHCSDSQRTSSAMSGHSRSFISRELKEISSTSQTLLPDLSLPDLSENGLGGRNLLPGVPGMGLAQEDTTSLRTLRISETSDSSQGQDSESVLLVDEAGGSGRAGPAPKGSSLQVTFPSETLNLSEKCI

[27] = target: panel of 320 non-olfactory GPCRs (Homo sapiens, UniProt Q96RI9)
Chain of panel of 320 non-olfactory GPCRs (Homo sapiens, UniProt Q96RI9) (Q96RI9 whole entry): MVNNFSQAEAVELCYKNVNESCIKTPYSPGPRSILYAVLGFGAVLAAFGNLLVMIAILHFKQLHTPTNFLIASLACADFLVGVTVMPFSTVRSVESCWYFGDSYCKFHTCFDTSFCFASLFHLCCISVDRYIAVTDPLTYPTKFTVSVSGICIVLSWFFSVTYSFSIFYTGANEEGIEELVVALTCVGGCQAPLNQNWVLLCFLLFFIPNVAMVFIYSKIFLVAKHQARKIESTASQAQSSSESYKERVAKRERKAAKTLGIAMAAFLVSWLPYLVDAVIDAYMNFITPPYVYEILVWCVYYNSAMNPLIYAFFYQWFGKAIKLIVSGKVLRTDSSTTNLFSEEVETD

[28] = target: panel of 320 non-olfactory GPCRs (Homo sapiens, UniProt P35367)
Chain of panel of 320 non-olfactory GPCRs (Homo sapiens, UniProt P35367) (P35367 whole entry): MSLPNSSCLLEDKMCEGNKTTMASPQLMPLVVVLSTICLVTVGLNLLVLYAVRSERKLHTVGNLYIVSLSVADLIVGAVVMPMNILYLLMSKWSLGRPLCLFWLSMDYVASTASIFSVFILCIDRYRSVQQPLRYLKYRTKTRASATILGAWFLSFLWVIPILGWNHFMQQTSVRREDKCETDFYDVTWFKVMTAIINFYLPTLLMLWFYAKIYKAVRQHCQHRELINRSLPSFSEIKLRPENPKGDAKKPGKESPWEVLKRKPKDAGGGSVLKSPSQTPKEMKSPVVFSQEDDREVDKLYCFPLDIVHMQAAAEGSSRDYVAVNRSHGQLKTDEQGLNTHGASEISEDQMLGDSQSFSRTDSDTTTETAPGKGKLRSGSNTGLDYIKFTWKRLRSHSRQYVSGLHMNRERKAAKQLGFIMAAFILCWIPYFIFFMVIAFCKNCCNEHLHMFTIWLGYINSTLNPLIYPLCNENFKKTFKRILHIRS

[29] = target: panel of 320 non-olfactory GPCRs (Homo sapiens, UniProt P35414)
[30] = target: panel of 320 non-olfactory GPCRs (Homo sapiens, UniProt O43194)
[31] = target: panel of 320 non-olfactory GPCRs (Homo sapiens, UniProt O95838)
[32] = target: panel of 320 non-olfactory GPCRs (Homo sapiens, UniProt P28335)
[33] = target: panel of 320 non-olfactory GPCRs (Homo sapiens, UniProt P30989)
[34] = target: panel of 320 non-olfactory GPCRs (Homo sapiens, UniProt O15218)
[35] = target: panel of 320 non-olfactory GPCRs (Homo sapiens, UniProt P47775)
Chain of panel of 320 non-olfactory GPCRs (Homo sapiens, UniProt P47775) (P47775 whole entry): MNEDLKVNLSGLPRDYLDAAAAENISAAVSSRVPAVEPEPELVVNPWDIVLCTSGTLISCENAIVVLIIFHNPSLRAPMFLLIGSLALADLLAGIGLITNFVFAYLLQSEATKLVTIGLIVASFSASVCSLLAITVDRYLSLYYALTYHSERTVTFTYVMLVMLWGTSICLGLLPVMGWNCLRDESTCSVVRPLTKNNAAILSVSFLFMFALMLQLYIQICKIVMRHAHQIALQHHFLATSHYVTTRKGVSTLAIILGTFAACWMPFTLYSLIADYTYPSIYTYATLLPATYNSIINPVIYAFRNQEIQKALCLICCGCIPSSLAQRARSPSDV

[36] = target: panel of 320 non-olfactory GPCRs (Homo sapiens, UniProt Q9BPV8)
[37] = target: panel of 320 non-olfactory GPCRs (Homo sapiens, UniProt P21554)
Note: test concentration or dose not given here.

Chain of panel of 320 non-olfactory GPCRs (Homo sapiens, UniProt Q9HC97) (Q9HC97 whole entry): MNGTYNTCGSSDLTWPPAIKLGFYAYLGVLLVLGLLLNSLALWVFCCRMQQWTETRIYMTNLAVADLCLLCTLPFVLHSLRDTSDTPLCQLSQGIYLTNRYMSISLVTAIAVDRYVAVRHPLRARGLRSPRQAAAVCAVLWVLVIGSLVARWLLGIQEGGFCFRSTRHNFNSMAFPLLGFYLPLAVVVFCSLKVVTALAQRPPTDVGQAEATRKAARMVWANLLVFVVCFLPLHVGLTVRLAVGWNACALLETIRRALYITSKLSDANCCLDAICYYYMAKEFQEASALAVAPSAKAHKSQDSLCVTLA

Row | SMILES | Fold of Basal RLU [1] | Fold of Basal RLU [2] | Fold of Basal RLU [3] | Fold of Basal RLU [4] | Fold of Basal RLU [5] | Fold of Basal RLU [6] | Fold of Basal RLU [7] | Fold of Basal RLU [8] | Fold of Basal RLU [9] | Fold of Basal RLU [10] | Fold of Basal RLU [11] | Fold of Basal RLU [12] | Fold of Basal RLU [13] | Fold of Basal RLU [14] | Fold of Basal RLU [15] | Fold of Basal RLU [16] | Fold of Basal RLU [17] | Fold of Basal RLU [18] | Fold of Basal RLU [19] | Fold of Basal RLU [20] | further results
1 | COC(=O)[C@@](C)(NC(=O)c1cc(C)n(-c2cccc(C(F)(F)F)c2)n1)c1cccs1 [‘1350] | 1 fold and 0.9 fold and 1.1 fold | 1.6 fold and 1.8 fold and 1.3 fold | 0.9 fold and 1.4 fold and 1.1 fold and 1.7 fold | 1.1 fold and 1.4 fold and 1.5 fold | 0.9 and 0.6 and 0.8 | 0.9 fold and 1 fold and 0.8 fold and 0.7 fold | 1.3 fold and 0.9 fold and 1.2 fold and 1 fold | 1 fold and 0.8 fold | 0.7 and 1 and 0.9 | 0.9 fold and 0.8 fold | 1.3 and 1.1 and 1 and 0.9 | 1.1 and 1.2 and 1.7 | 0.9 fold and 1 fold and 1.2 fold and 1.3 fold | 1 fold and 0.8 fold and 0.6 fold and 0.9 fold | 1.6 and 1.3 and 1.1 and 1 | 0.7 and 0.6 | 1 fold and 1.2 fold and 0.7 fold and 0.8 fold | 0.9 fold and 1.2 fold and 1.1 fold and 0.8 fold | 0.9 and 0.7 and 0.8 and 1.1 | 1.1 and 1 and 0.9 and 0.8 | Fold of Basal RLU [21]: 1.9 and 1.3 and 1 and 1.2; Fold of Basal RLU [22]: 1.5 and 1.6 and 1; Fold of Basal RLU [23]: 1 and 0.7 and 0.9; Fold of Basal RLU [24]: 0.8 fold and 1.2 fold; Fold of Basal RLU [25]: 0.8 and 0.9 and 0.7; Fold of Basal RLU [26]: 1.7 fold and 1.2 fold and 1.5 fold; Fold of Basal RLU [27]: 1.2 and 1.1 and 1.5; Fold of Basal RLU [28]: 0.9 fold and 1 fold and 1.1 fold; Fold of Basal RLU [29]: 0.9 fold and 1.1 fold and 1.2 fold and 1 fold; Fold of Basal RLU [30]: 0.7 and 0.8 and 1; Fold of Basal RLU [31]: 1.1 fold and 1.5 fold and 1 fold and 0.8 fold; Fold of Basal RLU [32]: 1.6 fold and 1 fold and 1.3 fold and 1.2 fold; Fold of Basal RLU [33]: 1.5 fold and 1 fold and 1.1 fold; Fold of Basal RLU [34]: 1.1 fold and 0.8 fold and 1.4 fold; Fold of Basal RLU [35]: 1.5 fold and 1.3 fold and 0.8 fold; Fold of Basal RLU [36]: 1 fold and 1.1 fold and 1.4 fold and 1.6 fold; Fold of Basal RLU [37]: 5.2 and 4.9 and 5.3
2 | Cc1cc(C(=O)NC(C)(c2ccco2)c2ccco2)nn1-c1cccc(C(F)(F)F)c1 [‘4936] | 1 fold and 1.4 fold and 0.9 fold | 2 fold and 1.4 fold and 2.8 fold and 1.7 fold | 1 fold and 1.1 fold and 0.9 fold and 0.8 fold | 2.3 fold and 1.8 fold and 1.6 fold and 1.5 fold | 1.5 and 1.4 and 1.6 and 2.3 | 1.2 fold and 0.7 fold and 1.1 fold | 0.9 fold and 1.1 fold and 1.2 fold and 1 fold | 1.2 fold and 1.1 fold and 1 fold | 0.9 and 0.7 and 1.1 and 1 | 1.2 fold and 1 fold and 1.4 fold | 1.5 and 1.4 and 1.3 and 1 | 1.3 and 1.8 and 1.7 and 2 | 0.9 fold and 1.2 fold and 1 fold | 0.9 fold and 0.8 fold | 1.5 and 1.1 and 1.2 and 0.9 | 2 and 1.6 and 1.3 and 1.1 | 1 fold and 0.7 fold and 0.8 fold and 1.1 fold | 0.8 fold and 1.3 fold and 0.7 fold | 0.9 and 1.3 and 0.8 | 0.9 and 0.7 | Fold of Basal RLU [21]: 0.8 and 0.4 and 0.6; Fold of Basal RLU [22]: 1.2 and 1 and 0.8 and 0.9; Fold of Basal RLU [23]: 1 and 0.8 and 0.6; Fold of Basal RLU [24]: 0.8 fold and 0.6 fold; Fold of Basal RLU [25]: 1.3 and 0.7 and 1; Fold of Basal RLU [26]: 1.2 fold and 0.9 fold and 1 fold and 1.3 fold; Fold of Basal RLU [27]: 0.8 and 1.3 and 1.4; Fold of Basal RLU [28]: 0.9 fold and 1.1 fold and 1.2 fold and 1.5 fold; Fold of Basal RLU [29]: 1.1 fold and 1.4 fold and 1.2 fold; Fold of Basal RLU [30]: 0.9 and 0.7 and 0.5; Fold of Basal RLU [31]: 1 fold and 0.8 fold and 0.9 fold; Fold of Basal RLU [32]: 1.5 fold and 1.3 fold and 1.1 fold; Fold of Basal RLU [33]: 1.6 fold and 1.2 fold and 0.9 fold and 1 fold; Fold of Basal RLU [34]: 1.7 fold and 1.9 fold and 1.4 fold and 2.5 fold; Fold of Basal RLU [35]: 1.4 fold and 2.1 fold and 1.5 fold and 1.8 fold; Fold of Basal RLU [36]: 1.3 fold and 1.5 fold and 1.7 fold and 1.8 fold; Fold of Basal RLU [37]: 5.5 and 5.4 and 5.6
